Laboratory results: ChEMBL document CHEMBL1201862, “PubChem BioAssay data set” (2004)
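Cells were grown in 96-well plates and exposed to each compound for 48 hours at five concentrations; endpoints were interpolated linearly between bracketing concentrations, or set to the highest concentration if not reached. Abbreviation: GI50, concentration required for 50% inhibition of growth.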 Calls of active or inactive are those of the source. Rule as the data show it: active = GI50 up to about 1.1 µM and inactive = higher.

What was measured:
Experiment in all cases: inhibition of tumour cell growth, NCI panel, 48 h
TK-10 = test system: TK-10
SR = test system: SR
SK-MEL-28 = test system: SK-MEL-28
NCI-H522 = test system: NCI-H522
HCC 2998 = test system: HCC 2998
SNB-75 = test system: SNB-75
UACC-257 = test system: UACC-257
Hs-578T = test system: Hs-578T
OVCAR-3 = test system: OVCAR-3
OVCAR-4 = test system: OVCAR-4
HCT-116 = test system: HCT-116
SK-OV-3 = test system: SK-OV-3
SF-539 = test system: SF-539
Malme-3M = test system: Malme-3M
MCF7 = test system: MCF7
K562 = test system: K562
SF-268 = test system: SF-268
ACHN = test system: ACHN
SK-MEL-2 = test system: SK-MEL-2
HOP-92 = test system: HOP-92

Measured: GI50

O=c1ccc2ccc(OP(=O)(O)O)cc2o1
inactive: TK-10 > 100 µM | SR > 100 µM | SK-MEL-28 > 100 µM | NCI-H522 > 100 µM | HCC 2998 > 100 µM | SNB-75 > 100 µM | UACC-257 > 100 µM | Hs-578T > 100 µM | OVCAR-3 > 100 µM | OVCAR-4 > 100 µM | HCT-116 > 100 µM | SK-OV-3 > 100 µM | SF-539 > 100 µM | Malme-3M > 100 µM | MCF7 > 100 µM | K562 > 100 µM | SF-268 > 100 µM | ACHN > 100 µM | SK-MEL-2 > 100 µM

COc1cc(OC)c2c(C)cc(=O)oc2c1
inactive: TK-10 66.4 µM | SR 45.1 µM | SK-MEL-28 > 100 µM | SNB-75 25.9 µM | UACC-257 93.8 µM | Hs-578T 61.1 µM | OVCAR-3 > 100 µM | OVCAR-4 > 100 µM | HCT-116 43.1 µM | SK-OV-3 > 100 µM | SF-539 34.8 µM | Malme-3M 53 µM | MCF7 85.9 µM | K562 45 µM | SF-268 47.9 µM | ACHN 36.7 µM | SK-MEL-2 > 100 µM

CCCCCCCCOC1C(O)C(O)C(O)C(O)C12CO2 (centres undefined)
inactive: TK-10 > 100 µM | SR 48.4 µM | SK-MEL-28 > 100 µM | NCI-H522 26.7 µM | HCC 2998 68.5 µM | SNB-75 32 µM | UACC-257 > 100 µM | Hs-578T 54.5 µM | OVCAR-3 50.4 µM | HCT-116 41 µM | SK-OV-3 38.3 µM | SF-539 > 100 µM | Malme-3M 57.5 µM | MCF7 46.5 µM | K562 38.5 µM | SF-268 64.4 µM | ACHN 53.8 µM | SK-MEL-2 53.8 µM

Cc1cc2nnn(C3CCCO3)c2cc1C (centres undefined)
inactive: TK-10 > 100 µM | SR > 100 µM | NCI-H522 > 100 µM | HCC 2998 > 100 µM | SNB-75 31.8 µM | UACC-257 > 100 µM | Hs-578T > 100 µM | OVCAR-3 > 100 µM | HCT-116 > 100 µM | SK-OV-3 > 100 µM | SF-539 > 100 µM | Malme-3M > 100 µM | MCF7 > 100 µM | K562 > 100 µM | SF-268 > 100 µM | SK-MEL-2 > 100 µM

COc1ccc(/C=C2\Sc3nnc(-c4ccccc4)n3N=C2c2cc(F)c(Cl)cc2Cl)cc1OC
inactive: TK-10 > 100 µM | SR 2.14 µM | SK-MEL-28 > 100 µM | NCI-H522 12.6 µM | HCC 2998 14.3 µM | HOP-92 37 µM | UACC-257 > 100 µM | Hs-578T 20.6 µM | OVCAR-3 > 100 µM | OVCAR-4 18.2 µM | HCT-116 6.24 µM | SK-OV-3 > 100 µM | SF-539 > 100 µM | MCF7 19.8 µM | K562 9.86 µM | SF-268 21 µM | ACHN > 100 µM | SK-MEL-2 > 100 µM

O=c1cc(O)c2ccccc2o1 [4-HYDROXYCOUMARINS]
inactive: TK-10 > 100 µM | SR > 100 µM | SK-MEL-28 > 100 µM | NCI-H522 > 100 µM | HCC 2998 > 100 µM | HOP-92 > 100 µM | SNB-75 > 100 µM | UACC-257 > 100 µM | Hs-578T > 100 µM | OVCAR-3 > 100 µM | OVCAR-4 > 100 µM | HCT-116 > 100 µM | SF-539 > 100 µM | Malme-3M > 100 µM | MCF7 > 100 µM | K562 > 100 µM | SF-268 > 100 µM | ACHN > 100 µM

CC1=C(C)SC(=C2Sc3[n-]c(=O)[nH]c(=O)c3S2)S1.CCCC[N+](CCCC)(CCCC)CCCC
inactive: TK-10 > 100 µM | SR 35.9 µM | SK-MEL-28 39.2 µM | NCI-H522 15.1 µM | HCC 2998 > 100 µM | HOP-92 > 100 µM | SNB-75 > 100 µM | UACC-257 > 100 µM | Hs-578T > 100 µM | OVCAR-3 46.1 µM | OVCAR-4 > 100 µM | HCT-116 > 100 µM | SK-OV-3 > 100 µM | SF-539 44.5 µM | Malme-3M 20.6 µM | MCF7 42.5 µM | K562 49.4 µM | SF-268 > 100 µM | ACHN > 100 µM

COCC1OC(N2C(=O)NC(=O)[C@@H]3C=C4CCCCC4=C[C@@H]32)C(OC)C1OC (some centres undefined)
inactive: TK-10 > 100 µM | SR 19.1 µM | SK-MEL-28 > 100 µM | NCI-H522 > 100 µM | HOP-92 75 µM | SNB-75 > 100 µM | UACC-257 > 100 µM | Hs-578T 68.9 µM | OVCAR-3 > 100 µM | OVCAR-4 > 100 µM | HCT-116 > 100 µM | SK-OV-3 > 100 µM | SF-539 > 100 µM | Malme-3M > 100 µM | MCF7 > 100 µM | K562 > 100 µM | SF-268 > 100 µM | ACHN > 100 µM | SK-MEL-2 > 100 µM

OCCNCCN1CCN(CCCN2c3ccccc3Sc3ccc(C(F)(F)F)cc32)CC1
inactive: TK-10 22.1 µM | SR > 100 µM | SK-MEL-28 23.6 µM | NCI-H522 19.2 µM | HCC 2998 27.4 µM | UACC-257 20.3 µM | Hs-578T 47.3 µM | OVCAR-3 22.7 µM | OVCAR-4 25.8 µM | HCT-116 17.9 µM | SK-OV-3 33.6 µM | SF-539 20.2 µM | Malme-3M 29.5 µM | MCF7 23.6 µM | SF-268 24.5 µM | ACHN 24.9 µM | SK-MEL-2 21.5 µM

COc1ccc(C2CC(c3c(O)ccc4ccccc34)=NN2c2ccc([N+](=O)[O-])cc2[N+](=O)[O-])cc1OC (centres undefined)
inactive: TK-10 24.3 µM | SK-MEL-28 34.2 µM | NCI-H522 2.46 µM | HCC 2998 28.5 µM | HOP-92 19.4 µM | SNB-75 20.7 µM | UACC-257 22.4 µM | Hs-578T 19.4 µM | OVCAR-3 12.1 µM | OVCAR-4 16.6 µM | HCT-116 15.8 µM | SK-OV-3 26.4 µM | SF-539 26.1 µM | Malme-3M 17.4 µM | MCF7 17.9 µM | K562 3.47 µM | SF-268 25.4 µM | ACHN 18.5 µM | SK-MEL-2 19.4 µM

CCc1nc2c(n1CC)C(=O)c1ccccc1C2=O
inactive: TK-10 22.1 µM | SR 37.4 µM | SK-MEL-28 56.1 µM | NCI-H522 31.6 µM | HCC 2998 42.1 µM | HOP-92 63.2 µM | SNB-75 20.7 µM | UACC-257 25.4 µM | Hs-578T 67.6 µM | OVCAR-3 18.7 µM | OVCAR-4 34.9 µM | HCT-116 > 10 µM | SF-539 44.4 µM | Malme-3M 15.5 µM | MCF7 49.1 µM | K562 44.5 µM | SF-268 69 µM | ACHN 39 µM

COc1ccc(/C=C/c2cnc3ccccc3n2)cc1OC
inactive: TK-10 > 100 µM | SR > 100 µM | SK-MEL-28 92.3 µM | NCI-H522 24.1 µM | HOP-92 94.8 µM | SNB-75 63.8 µM | UACC-257 > 100 µM | Hs-578T 89.3 µM | OVCAR-3 93.1 µM | OVCAR-4 34.8 µM | HCT-116 47.2 µM | SK-OV-3 75.7 µM | SF-539 > 100 µM | Malme-3M 38.2 µM | MCF7 54.5 µM | K562 44.5 µM | SF-268 > 100 µM | ACHN > 100 µM | SK-MEL-2 92.7 µM

O=C(O[C@@H](/C=C/c1ccccc1)P1(=O)N(Cc2ccccc2)[C@@H]2CCCC[C@H]2N1Cc1ccccc1)c1ccccc1
inactive: TK-10 > 100 µM | SR 2.68 µM | SK-MEL-28 6.92 µM | NCI-H522 4.54 µM | HCC 2998 7.93 µM | HOP-92 1.71 µM | UACC-257 8.75 µM | Hs-578T 8.89 µM | OVCAR-3 5.07 µM | OVCAR-4 1.88 µM | HCT-116 2.61 µM | SK-OV-3 5.92 µM | SF-539 4.68 µM | Malme-3M 3.6 µM | MCF7 3.59 µM | K562 3.25 µM | SF-268 5.06 µM | ACHN 3.95 µM | SK-MEL-2 2.38 µM

CC1CC2(OC2C)C(=O)OC2CCN(C)C/C=C(/COC(=O)C1(C)O)C2=O (centres undefined)
inactive: TK-10 > 100 µM | SK-MEL-28 > 100 µM | NCI-H522 > 100 µM | HCC 2998 > 100 µM | HOP-92 > 100 µM | SNB-75 > 100 µM | UACC-257 > 100 µM | Hs-578T > 100 µM | OVCAR-3 > 100 µM | OVCAR-4 > 100 µM | HCT-116 > 100 µM | SK-OV-3 > 100 µM | SF-539 > 100 µM | Malme-3M > 100 µM | MCF7 > 100 µM | K562 > 100 µM | SF-268 > 100 µM | ACHN > 100 µM | SK-MEL-2 > 100 µM

Nc1nc(-c2ccc3ccccc3c2)cc(-c2cc(-c3ccc4ccccc4c3)nc(N)n2)n1
inactive: TK-10 > 100 µM | SR > 100 µM | SK-MEL-28 > 100 µM | NCI-H522 > 100 µM | HCC 2998 > 100 µM | HOP-92 > 100 µM | UACC-257 > 100 µM | Hs-578T > 100 µM | OVCAR-3 > 100 µM | OVCAR-4 > 100 µM | HCT-116 > 100 µM | SK-OV-3 > 100 µM | SF-539 > 100 µM | Malme-3M > 100 µM | MCF7 > 100 µM | K562 > 100 µM | SF-268 > 100 µM | ACHN > 100 µM | SK-MEL-2 > 100 µM
